# Biological target: T1, 5-hydroxytryptamine receptor 1A (Homo sapiens, UniProt P08908)
# T1 sequence (P08908 whole entry): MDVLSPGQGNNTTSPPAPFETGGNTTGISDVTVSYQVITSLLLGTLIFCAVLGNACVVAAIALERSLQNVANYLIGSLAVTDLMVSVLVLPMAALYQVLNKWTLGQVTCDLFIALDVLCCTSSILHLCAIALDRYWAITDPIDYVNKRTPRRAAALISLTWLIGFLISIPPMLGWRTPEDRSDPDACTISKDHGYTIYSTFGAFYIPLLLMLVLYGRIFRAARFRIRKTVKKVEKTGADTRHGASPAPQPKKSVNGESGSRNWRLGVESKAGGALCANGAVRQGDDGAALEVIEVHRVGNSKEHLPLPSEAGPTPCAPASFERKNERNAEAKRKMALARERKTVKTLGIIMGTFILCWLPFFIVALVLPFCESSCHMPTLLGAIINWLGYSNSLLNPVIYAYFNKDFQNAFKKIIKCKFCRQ
# Assay: Antagonist activity at 5HT1A
# Assay type: functional
row,SMILES,Ki [nM]
1,COc1ccccc1N1CCN(CCC(O)c2csc(C)c2)CC1 (centres undefined),372
2,OC(CCN1CCN(c2cnc3ccccc3c2)CC1)c1csc2ccccc12 (centres undefined),1000
3,COc1ccccc1N1CCN(CCC(Oc2cccc3ccccc23)c2ccsc2)CC1 (centres undefined),182
4,OC(CCN1CCN(c2ncccn2)CC1)c1ccccc1 (centres undefined),372
5,OC(CCN1CCN(c2ccccc2Cl)CC1)c1ccsc1 (centres undefined),5010
6,COc1ccccc1N1CCN(CCC(=O)c2cc(C)sc2C)CC1,5010
7,COc1ccccc1N1CCN(CCC(O)c2ccc(-c3ccccc3)cc2)CC1 (centres undefined),851
8,FC(F)(F)c1ccc(OC(CCN2CCN(c3ccc(Cl)cc3)CC2)c2ccccc2)cc1 (centres undefined),5010
9,OC(CCN1CCN(c2ccc(F)cc2)CC1)c1ccccc1 (centres undefined),145
10,OC(CCN1CCN(c2ccc3ncccc3c2)CC1)c1csc2ccccc12 (centres undefined),550
11,Oc1ccccc1N1CCN(CCC(O)c2ccc3ccccc3c2)CC1 (centres undefined),191
12,COc1ccccc1N1CCN(CCC(Oc2cccc3ccccc23)c2cccs2)CC1 (centres undefined),219
13,O=C(CCN1CCN(c2ccccc2O)CC1)c1ccc2ccccc2c1,1000
14,OC(CCN1CCN(c2ccc3sccc3c2)CC1)c1csc2ccccc12 (centres undefined),1580
15,OC(CCN1CCN(c2cccc3cccnc23)CC1)c1csc2ccccc12 (centres undefined),550
16,COc1ccccc1N1CCN(CC/C(=N\O)c2csc3ccccc23)CC1,794
17,Cc1cc(C(=O)CCN2CCN(c3cccc4ccccc34)CC2)c(C)s1,5010

# The next compounds have a lower Ki than those just listed; values first:
row,Ki [nM],SMILES
1,89.1,Cc1cc(C(O)CCN2CCN(c3ccccc3O)CC2)c(C)s1 (centres undefined)
2,89.1,COc1ccc(OC(CCN2CCN(c3ccccc3OC)CC2)c2ccccc2)cc1 (centres undefined)
3,66.1,OC(CCN1CCN(c2cccc3ccccc23)CC1)c1csc2ccccc12 (centres undefined)
4,60.3,COc1ccccc1N1CCN(CCC(=O)c2ccsc2)CC1
5,55,COc1ccccc1N1CCN(CCC(Oc2ccc3c(c2)OCO3)c2ccsc2)CC1 (centres undefined)
6,50.1,COc1ccccc1N1CCN(CCC(=O)c2ccc([N+](=O)[O-])cc2)CC1
7,37.2,OC(CCN1CCN(c2cccc3ncccc23)CC1)c1csc2ccccc12 (centres undefined)
8,20,COc1ccccc1N1CCN(CCC(Oc2ccc3c(c2)OCO3)c2ccccc2)CC1 (centres undefined)
9,12.9,COc1cc(F)ccc1N1CCN(CCC(=O)c2cc(C)sc2C)CC1
10,10.2,Cc1ccc2cccc(N3CCN(CCC(O)c4csc5ccccc45)CC3)c2n1 (centres undefined)
11,10,COc1ccccc1N1CCN(CCC(O)c2ccc([N+](=O)[O-])cc2)CC1 (centres undefined)
12,9.33,CC1CN(CCC(O)c2csc3ccc(F)cc23)CCN1c1cccc2c1OCO2 (centres undefined)
13,6.03,OC(CCN1CCN(c2cccc3c2OCCO3)CC1)c1csc2ccc(F)cc12 (centres undefined)
14,3.02,OC(CCN1CCN(c2cccc3c2OCCCO3)CC1)c1csc2ccc(F)cc12 (centres undefined)
15,2.69,OC(CCN1CCN(c2cccc3cccnc23)CC1)c1csc2ccc(F)cc12 (centres undefined)
16,2.51,Cc1ccc2cccc(N3CCN(CCC(O)c4csc5ccc(F)cc45)CC3)c2n1 (centres undefined)
17,1.91,OC(CCN1CCN(c2cccc3c2OCCCO3)CC1)c1csc2ccccc12 (centres undefined)

# Source: ChEMBL document CHEMBL1157053, “Pharmacophore-based 3D QSAR studies on a series of high affinity 5-HT1A receptor ligands” (Eur J Med Chem, 2010)
